Measured values from PubChem BioAssay (NCI).
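These data come from cells grown in 96-well plates and exposed to compound for 48 hours at five concentrations. Here, GI50 denotes the concentration required for 50% inhibition of growth. TGI: total growth inhibition.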

Legend:
Experiment in all cases: NCI-60 cell line screen, 48 h
ACHN renal = test system: ACHN renal
SR leukemia = test system: SR leukemia
NCI-H522 lung = test system: NCI-H522 lung
TK-10 renal = test system: TK-10 renal
MDA-MB-231 breast = test system: MDA-MB-231 breast
SF-268 CNS = test system: SF-268 CNS
DU-145 prostate = test system: DU-145 prostate
SF-539 CNS = test system: SF-539 CNS
SNB-75 CNS = test system: SNB-75 CNS
CCRF-CEM leukemia = test system: CCRF-CEM leukemia
PC-3 prostate = test system: PC-3 prostate
HCC-2998 colon = test system: HCC-2998 colon
SK-MEL-5 melanoma = test system: SK-MEL-5 melanoma
OVCAR-5 ovarian = test system: OVCAR-5 ovarian
U251 CNS = test system: U251 CNS
HS 578T breast = test system: HS 578T breast
COLO 205 colon = test system: COLO 205 colon
SK-MEL-28 melanoma = test system: SK-MEL-28 melanoma
OVCAR-8 ovarian = test system: OVCAR-8 ovarian
SN12C renal = test system: SN12C renal
HL-60(TB) leukemia = test system: HL-60(TB) leukemia
T-47D breast = test system: T-47D breast
HT29 colon = test system: HT29 colon
UACC-62 melanoma = test system: UACC-62 melanoma
A498 renal = test system: A498 renal
LOX IMVI melanoma = test system: LOX IMVI melanoma
UACC-257 melanoma = test system: UACC-257 melanoma
SW-620 colon = test system: SW-620 colon
MALME-3M melanoma = test system: MALME-3M melanoma
SK-MEL-2 melanoma = test system: SK-MEL-2 melanoma
786-0 renal = test system: 786-0 renal
NCI-H23 lung = test system: NCI-H23 lung
BT-549 breast = test system: BT-549 breast
CAKI-1 renal = test system: CAKI-1 renal
MOLT-4 leukemia = test system: MOLT-4 leukemia
UO-31 renal = test system: UO-31 renal
NCI-H226 lung = test system: NCI-H226 lung
M14 melanoma = test system: M14 melanoma
HCT-15 colon = test system: HCT-15 colon
IGROV1 ovarian = test system: IGROV1 ovarian
RPMI-8226 leukemia = test system: RPMI-8226 leukemia
HOP-62 NSCLC = test system: HOP-62 NSCLC
NCI/ADR-RES ovarian = test system: NCI/ADR-RES ovarian
MCF7 breast = test system: MCF7 breast
MDA-MB-435 = test system: MDA-MB-435
SNB-19 CNS = test system: SNB-19 CNS
NCI-H460 lung = test system: NCI-H460 lung
K-562 leukemia = test system: K-562 leukemia
A549 NSCLC = test system: A549 NSCLC
SF-295 CNS = test system: SF-295 CNS
OVCAR-4 ovarian = test system: OVCAR-4 ovarian
HOP-92 NSCLC = test system: HOP-92 NSCLC
OVCAR-3 ovarian = test system: OVCAR-3 ovarian
KM12 colon = test system: KM12 colon
SK-OV-3 ovarian = test system: SK-OV-3 ovarian
HCT-116 colon = test system: HCT-116 colon
RXF 393 renal = test system: RXF 393 renal

N#CCc1ncc(-c2ccc(C(F)(F)F)cc2)c(NC2CCCCCC2)n1
GI50 (ACHN renal): > 10 µM | TGI (ACHN renal): > 10 µM | GI50 (SR leukemia): > 10 µM | TGI (SR leukemia): > 10 µM | GI50 (NCI-H522 lung): > 10 µM | TGI (NCI-H522 lung): > 10 µM | GI50 (TK-10 renal): > 10 µM | TGI (TK-10 renal): > 10 µM | GI50 (MDA-MB-231 breast): > 10 µM | TGI (MDA-MB-231 breast): > 10 µM | GI50 (SF-268 CNS): > 10 µM | TGI (SF-268 CNS): > 10 µM | GI50 (DU-145 prostate): > 10 µM | TGI (DU-145 prostate): > 10 µM | GI50 (SF-539 CNS): > 10 µM | TGI (SF-539 CNS): > 10 µM | GI50 (SNB-75 CNS): > 10 µM | TGI (SNB-75 CNS): > 10 µM | GI50 (CCRF-CEM leukemia): > 10 µM | TGI (CCRF-CEM leukemia): > 10 µM | GI50 (PC-3 prostate): > 10 µM | TGI (PC-3 prostate): > 10 µM | GI50 (HCC-2998 colon): > 10 µM | TGI (HCC-2998 colon): > 10 µM | GI50 (SK-MEL-5 melanoma): > 10 µM | TGI (SK-MEL-5 melanoma): > 10 µM | GI50 (OVCAR-5 ovarian): > 10 µM | TGI (OVCAR-5 ovarian): > 10 µM | GI50 (U251 CNS): > 10 µM | TGI (U251 CNS): > 10 µM | GI50 (HS 578T breast): > 10 µM | TGI (HS 578T breast): > 10 µM | GI50 (COLO 205 colon): > 10 µM | TGI (COLO 205 colon): > 10 µM | GI50 (SK-MEL-28 melanoma): > 10 µM | TGI (SK-MEL-28 melanoma): > 10 µM | GI50 (OVCAR-8 ovarian): > 10 µM | TGI (OVCAR-8 ovarian): > 10 µM | GI50 (SN12C renal): > 10 µM | TGI (SN12C renal): > 10 µM | GI50 (HL-60(TB) leukemia): > 10 µM | TGI (HL-60(TB) leukemia): > 10 µM | GI50 (T-47D breast): > 10 µM | TGI (T-47D breast): > 10 µM | GI50 (HT29 colon): > 10 µM | TGI (HT29 colon): > 10 µM | GI50 (UACC-62 melanoma): > 10 µM | TGI (UACC-62 melanoma): > 10 µM | GI50 (A498 renal): > 10 µM | TGI (A498 renal): > 10 µM | GI50 (LOX IMVI melanoma): > 10 µM | TGI (LOX IMVI melanoma): > 10 µM | GI50 (UACC-257 melanoma): > 10 µM | TGI (UACC-257 melanoma): > 10 µM | GI50 (SW-620 colon): > 10 µM | TGI (SW-620 colon): > 10 µM | GI50 (MALME-3M melanoma): > 10 µM | TGI (MALME-3M melanoma): > 10 µM | GI50 (SK-MEL-2 melanoma): > 10 µM | TGI (SK-MEL-2 melanoma): > 10 µM | GI50 (786-0 renal): > 10 µM | TGI (786-0 renal): > 10 µM | GI50 (NCI-H23 lung): > 10 µM | TGI (NCI-H23 lung): > 10 µM | GI50 (BT-549 breast): > 10 µM | TGI (BT-549 breast): > 10 µM | GI50 (CAKI-1 renal): > 10 µM | TGI (CAKI-1 renal): > 10 µM | GI50 (MOLT-4 leukemia): > 10 µM | TGI (MOLT-4 leukemia): > 10 µM | GI50 (UO-31 renal): > 10 µM | TGI (UO-31 renal): > 10 µM | GI50 (NCI-H226 lung): > 10 µM | TGI (NCI-H226 lung): > 10 µM | GI50 (M14 melanoma): > 10 µM | TGI (M14 melanoma): > 10 µM | GI50 (HCT-15 colon): > 10 µM | TGI (HCT-15 colon): > 10 µM | GI50 (IGROV1 ovarian): > 10 µM | TGI (IGROV1 ovarian): > 10 µM | GI50 (RPMI-8226 leukemia): > 10 µM | TGI (RPMI-8226 leukemia): > 10 µM | GI50 (HOP-62 NSCLC): > 10 µM | TGI (HOP-62 NSCLC): > 10 µM | GI50 (NCI/ADR-RES ovarian): > 10 µM | TGI (NCI/ADR-RES ovarian): > 10 µM | GI50 (MCF7 breast): > 10 µM | TGI (MCF7 breast): > 10 µM | GI50 (MDA-MB-435): > 10 µM | TGI (MDA-MB-435): > 10 µM | GI50 (SNB-19 CNS): > 10 µM | TGI (SNB-19 CNS): > 10 µM | GI50 (NCI-H460 lung): > 10 µM | TGI (NCI-H460 lung): > 10 µM | GI50 (K-562 leukemia): > 10 µM | TGI (K-562 leukemia): > 10 µM | GI50 (A549 NSCLC): > 10 µM | TGI (A549 NSCLC): > 10 µM | GI50 (SF-295 CNS): > 10 µM | TGI (SF-295 CNS): > 10 µM | GI50 (OVCAR-4 ovarian): > 10 µM | TGI (OVCAR-4 ovarian): > 10 µM | GI50 (HOP-92 NSCLC): > 10 µM | TGI (HOP-92 NSCLC): > 10 µM | GI50 (OVCAR-3 ovarian): > 10 µM | TGI (OVCAR-3 ovarian): > 10 µM | GI50 (KM12 colon): > 10 µM | TGI (KM12 colon): > 10 µM | GI50 (SK-OV-3 ovarian): > 10 µM | TGI (SK-OV-3 ovarian): > 10 µM | GI50 (HCT-116 colon): > 10 µM | TGI (HCT-116 colon): > 10 µM | GI50 (RXF 393 renal): > 10 µM | TGI (RXF 393 renal): > 10 µM
